Measurements reported in US7323597B2, “Method for the production of diaminoxylene by continuous hydrogenation of liquid phthalonitrile” (BASF Aktiengesellschaft, priority 2003, dated 2008).

Experiment: Solubility of IPN in MXDA
Type: physicochemical
Details: in MXDA (meta-xylylenediamine) as solvent, at 70° C.

Structure (SMILES): N#Cc1cccc(C#N)c1 [IPN, 1,3-dicyanobenzene]
- solubility of IPN in MXDA: approx. 20 % by weight
